Results taken from patent publication US20250042853A1, “BICYCLIC COMPOUND AND APPLICATION THEREOF” (BETTA PHARMACEUTICALS CO., LTD, priority 2021, published 2025).
pIC50: −log10 of the molar value.

Tests used:
VEGFA = VEGFA ELISA assay (IC50); assay type: cell-based; conditions: Homo sapiens, 786-0; 786-O cells, 24 h, VEGFA in culture supernatant by ELISA
Experimental: 786-O cells in the logarithmic growth phase were inoculated into a 96-well plate at a cell concentration of 65,000 cells per ml of culture liquid, 180 μL per well. The compounds were diluted to the corresponding concentrations, and 20 μL of compound solutions of various concentrations were added to the corresponding cell wells, so that the final concentrations of the compounds were 1.5 nM, 4.6 nM, 13.7 nM, 41.2 nM, 123.5 nM, 370.4 nM, 1111.1 nM, 3333.3 nM, and 10000 nM, respectively. After culturing for 24 h, the cell culture supernatant was collected and the VEGFA concentration was determined using an ELISA kit (purchased from Abeam). Finally, the reaction was terminated and the absorbance value of each well was measured at a wavelength of 450 nm using an ELISA reader. The IC50 values were calculated by GraphPadPrism. CellTiter-Glo reagent was used to measure cell viability.

786-O-HIF2α-Luc cells = assay: Luciferase assay (HIF2α reporter gene cells); assay type: cell-based; conditions: 18-20 h, luminescence
Experimental: The luciferase LUC gene was stably transfected into 786-0 cells (purchased from ATCC) using Lipofectamine 3000 transfection reagent (purchased from Invitrogen) to construct HIF2α reporter gene cells (786-O-HIF2α-Luc cells). The experiment was performed when 786-O-HIF2α-Luc cells were in the logarithmic growth phase, the culture medium (RPMI MEDIUM 1640, purchased from Invitrogen) was discarded, and the cells were rinsed three times with PBS; trypsin (TrypLE, purchased from Invitrogen) was added to digest the cells, and the digestion was terminated with culture medium, 10% fetal bovine serum, 1% penicillin, and streptomycin. The cells were collected by centrifugation, and washed twice with PBS to remove phenol red in the culture medium. The cells were resuspended to an appropriate concentration. The cell density and viability were measured, to ensure that the cells with a viability of at least 90% were used in the assay.
The compounds at a gradient concentration were transferred into 384 wells using Echo550 (non-contact acoustic pipetting system, purchased from Labcyte), 25 nL/well. The cells were seeded into 384-well plates, with 4500 cells/well and 25 μL of culture medium, and the final concentrations of the compounds were 10000 nM, 3333 nM, 1111 nM, 370 nM, 123 nM, 41.1 nM, 13.7 nM, 4.6 nM, 1.5 nM, and 0.5 nM, respectively. The cells were cultured for 18-20 h under conditions of 37° C. and 5% CO2. Steady-Glo™ luciferase assay system (purchased from Promega) was added to a 384-well plate, 25 μL/well. Luminescence values were detected using Envision. The inhibition rate % was calculated based on the RLU (Record Luminescence) signal value of each well, and then the IC50 values of the corresponding compounds were calculated by fitting using Graphpad 8.0.
The IC50 data of the exemplary examples are provided in Table 2, where A stands for IC50≤0.1 μM; B stands for 0.1 μM<IC50≤0.5 μM; and C stands for IC50>0.5 μM.

SMILES | pIC50 (VEGFA) | pIC50 (786-O-HIF2α-Luc cells) | pIC50 (786-O-HIF2α-Luc cells; class symbols)
O=S(=O)(c1cn(-c2ccc(F)c(Cl)c2)c2c1[C@H](O)C(F)(F)CC2)C(F)(F)F [Example 33, (S)-1-(3-chloro-4-fluorophenyl)-5,5-difluoro-3-((trifluoromethyl)sulfonyl)-4,5,6,7-tetrahydro-1H-indol-4-ol] | 7.39 | 7.28 | –
N#Cc1ccc(-n2cc(S(=O)(=O)C(F)(F)F)c3c2CCC(F)(F)[C@H]3O)cc1C(F)F [Example 35, (S)-4-(5,5-difluoro-4-hydroxyl-3-((trifluoromethyl)sulfonyl)-4,5,6,7-tetrahydro-1H-indol-1-yl)-2-(difluoromethyl)benzonitrile] | 7.74 | 8.00 | –
O=S(=O)(c1cn(-c2ccc(F)c(C(F)F)c2)c2c1[C@H](O)CCC2)C(F)(F)F [Example 52, (R)-1-(3-(difluoromethyl)-4-fluorophenyl)-3-((trifluoromethyl)sulfonyl)-4,5,6,7-tetrahydro-1H-indol-4-ol] | 7.34 | 7.35 | –
CS(=O)(=NC#N)c1cn(-c2ccc(F)c(C(F)F)c2)c2c1[C@H](O)C(F)(F)CC2 (stereo partly drawn) [Example 59, N—(((S)-1-(3-(difluoromethyl)-4-fluorophenyl)-5,5-difluoro-4-hydroxyl-4,5,6,7-tetrahydro-1H-indol-3-yl)(methyl)(oxo)-16-sulfino)cyanamide] | 6.96 | – | 6.30 to 7.00
N#Cc1ccc(-n2cc(C(F)(F)F)c3c2CCC(F)C3O)cc1C(F)F (stereo not shown) [Example 107, 2-(difluoromethyl)-4-(5-fluoro-4-hydroxyl-3-(trifluoromethyl)-4,5,6,7-tetrahydro-1H-indol-1-yl)benzonitrile] | 7.47 | – | ≥ 7.00
